These results are taken from BindingDB's records for doi:10.1002/cbic.201700052 (University of Illinois, 2017).

Holding throughout (experiment): In Silico Screening
For assay [1], the target named is T1, 4-hydroxy-3-methylbut-2-enyl diphosphate reductase (Aquifex aeolicus (strain VF5), UniProt O67625).
T1 sequence (O67625 whole entry): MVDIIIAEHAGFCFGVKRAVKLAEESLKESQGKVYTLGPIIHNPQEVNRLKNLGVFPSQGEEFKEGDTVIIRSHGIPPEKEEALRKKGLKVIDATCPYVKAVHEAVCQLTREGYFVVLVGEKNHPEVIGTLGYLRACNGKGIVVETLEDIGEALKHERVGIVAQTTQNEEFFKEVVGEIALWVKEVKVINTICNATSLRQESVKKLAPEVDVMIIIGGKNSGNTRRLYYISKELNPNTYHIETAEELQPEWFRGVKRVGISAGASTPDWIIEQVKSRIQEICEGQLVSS
The source says: (§1) In order to find new inhibitors, we carried out in silico screening of AaIspH and EcIspH using ZINC and National Cancer Institute (NCI) libraries and Glide docking, essentially as previously described.[Lindert et al., Chem. Biol. Drug Des., 81:742-748]

In assay [2] the target is T2, 4-hydroxy-3-methylbut-2-enyl diphosphate reductase (Escherichia coli (strain K12), UniProt P62623).
T2 sequence (P62623 whole entry): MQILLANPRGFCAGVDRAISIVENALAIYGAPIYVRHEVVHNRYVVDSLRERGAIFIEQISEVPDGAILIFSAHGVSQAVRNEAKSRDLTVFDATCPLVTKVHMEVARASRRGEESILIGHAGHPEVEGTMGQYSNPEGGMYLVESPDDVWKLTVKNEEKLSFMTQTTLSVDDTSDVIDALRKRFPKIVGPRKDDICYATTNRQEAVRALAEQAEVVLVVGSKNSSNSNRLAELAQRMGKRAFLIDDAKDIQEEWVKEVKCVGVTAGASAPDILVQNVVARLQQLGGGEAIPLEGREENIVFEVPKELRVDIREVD
Excerpt: as §1

Assay [3] concerns the target T3, 4-hydroxy-3-methylbut-2-enyl diphosphate reductase (Pseudomonas aeruginosa (strain ATCC 15692 / PAO1 / 1C / PRS 101 / LMG12228), UniProt Q9HVM7).
T3 sequence (Q9HVM7 whole entry): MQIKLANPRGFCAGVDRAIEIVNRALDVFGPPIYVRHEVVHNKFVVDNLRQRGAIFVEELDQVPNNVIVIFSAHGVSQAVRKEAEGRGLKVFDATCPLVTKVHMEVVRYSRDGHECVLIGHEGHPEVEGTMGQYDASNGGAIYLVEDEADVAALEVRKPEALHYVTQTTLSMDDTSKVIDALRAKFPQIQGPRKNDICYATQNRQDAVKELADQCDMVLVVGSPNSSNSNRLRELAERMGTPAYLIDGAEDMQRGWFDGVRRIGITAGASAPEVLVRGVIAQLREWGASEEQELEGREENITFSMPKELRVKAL
Excerpt: as §1

Consider `Nc1ccc2c(c1)CC1(C(=O)NC(=O)NC1=O)C1CN(Cc3ccccc3)CCN21` (stereo not drawn) [8-Amino-3-benzyl-2,3,4,4 a-tetrahydro-1,2'H,6H-spiro[pyrazino[1,2-a]quinoline-5,5'-pyrimidine]-2',4',6'(1'H,3'H)-trione], for which the values for the Ki in assay [1] and in assay [2] were 700 nM and 3000 nM, respectively.
In assay [3], `CCN1CCN2c3ccc(N)cc3CC3(C(=O)NC(=O)NC3=O)C2C1` (stereo not drawn) [IspH inhibitor, 8] had a Ki of 500 nM.
